Source: ChEMBL document CHEMBL5512645, “A novel antimicrobial peptide with broad-spectrum and exceptional stability derived from the natural peptide Brevicidine” (Eur J Med Chem, 2024)
In brackets after ≈: the same amount, converted by molar mass. Bridge positions count the residues as written; N and C are the ends. Square brackets hold non-standard residues; d marks the D form. Peptide text beside a SMILES is read from it. * marks the point of attachment. Lauroyl = CCCCCCCCCCCC(=O)*; Decanoyl = CCCCCCCCCC(=O)*; dOrn = NCCC[C@@H](N)C(=O)O; Octanoyl = CCCCCCCC(=O)*; Orn = NCCC[C@H](N)C(=O)O

Legend:
[1] = system: Escherichia coli; test: Antibacterial activity against Escherichia coli ATCC 25922 incubated for 18 to 24 hrs by broth microdilution method; assay type: functional; conditions: time 18-24 hrs
[2] = system: Klebsiella pneumoniae; test: Antibacterial activity against Klebsiella pneumoniae ATCC 700603 incubated for 18 to 24 hrs by broth microdilution method; assay type: functional; conditions: time 18-24 hrs
[3] = system: Enterococcus faecalis; test: Antibacterial activity against Enterococcus faecalis ATCC 29212 incubated for 18 to 24 hrs by broth microdilution method; assay type: functional; conditions: time 18-24 hrs
[4] = system: Erythrocyte; test: Hemolytic activity in mouse red blood cell assessed as hemolysis incubated for 1 hr; assay type: toxicity, cell-based
[5] = system: Pseudomonas aeruginosa; test: Antibacterial activity against Pseudomonas aeruginosa ATCC 27853 incubated for 18 to 24 hrs by broth microdilution method; assay type: functional; conditions: time 18-24 hrs
[6] = system: Staphylococcus aureus; test: Antibacterial activity against Staphylococcus aureus ATCC 25923 incubated for 18 to 24 hrs by broth microdilution method; assay type: functional; conditions: time 18-24 hrs
[7] = system: Staphylococcus epidermidis; test: Antibacterial activity against Staphylococcus epidermidis ATCC 12228 incubated for 18 to 24 hrs by broth microdilution method; assay type: functional; conditions: time 18-24 hrs
[8] = system: Bacillus subtilis; test: Antibacterial activity against Bacillus subtilis ATCC 23857 incubated for 18 to 24 hrs by broth microdilution method; assay type: functional; conditions: time 18-24 hrs
[9] = system: Acinetobacter baumannii; test: Antibacterial activity against Acinetobacter baumannii ATCC 19606 incubated for 18 to 24 hrs by broth microdilution method; assay type: functional; conditions: time 18-24 hrs

Structure (SMILES) | MIC [1] [µM] | MIC [2] [µM] | MIC [3] [µM] | MHC [4] [µM] | MIC [5] [µM] | MIC [6] [µM] | MIC [7] [µM] | MIC [8] [µM] | MIC [9] [µM]
CCC(C)CCC(=O)N[C@H](CC(N)=O)C(=O)N[C@H](Cc1ccc(O)cc1)C(=O)N[C@H](Cc1c[nH]c2ccccc12)C(=O)N[C@H](CN)C(=O)N[C@@H](CN)C(=O)NCC(=O)N[C@H](CN)C(=O)N[C@@H](Cc1c[nH]c2ccccc12)C(=O)N[C@@H]1C(=O)N[C@@H]([C@@H](C)CC)C(=O)NCC(=O)N[C@@H](CO)C(=O)O[C@@H]1C (mixture of isomers) | 32 | 16 | > 128 | 128 | 4 | 128 | 16 | 32 | 32
CCCCCCCCCC(=O)N[C@H](CC(N)=O)C(=O)N[C@H](Cc1ccc(O)cc1)C(=O)N[C@H](Cc1c[nH]c2ccccc12)C(=O)N[C@H](CCCN)C(=O)N[C@@H](CCCN)C(=O)NCC(=O)N[C@H](CCCN)C(=O)N[C@@H](Cc1c[nH]c2ccccc12)C(=O)N[C@@H]1C(=O)N[C@@H]([C@@H](C)CC)C(=O)NCC(=O)N[C@@H](CO)C(=O)O[C@@H]1C (Decanoyl-[dN][dY][dW][dOrn][Orn]G[dOrn]WTIGS; ester 9-C) | 2 (≈ 3.12 µg/mL) | 2 (≈ 3.12 µg/mL) | 32 (≈ 50 µg/mL) | 8 | 2 (≈ 3.12 µg/mL) | 16 (≈ 25 µg/mL) | 4 (≈ 6.25 µg/mL) | 4 (≈ 6.25 µg/mL) | 2 (≈ 3.12 µg/mL)
CCC(C)CCC(=O)N[C@H](CC(N)=O)C(=O)N[C@H](Cc1ccc(O)cc1)C(=O)N[C@H](Cc1c[nH]c2ccccc12)C(=O)N[C@H](CCCN)C(=O)N[C@@H](C)C(=O)NCC(=O)N[C@H](CCCN)C(=O)N[C@@H](Cc1c[nH]c2ccccc12)C(=O)N[C@@H]1C(=O)N[C@@H]([C@@H](C)CC)C(=O)NCC(=O)N[C@@H](CO)C(=O)O[C@@H]1C (mixture of isomers) | 8 | 8 | 64 | 64 | 4 | 32 | 32 | 16 | 8
CCCCCCCCCCCC(=O)N[C@H](CC(N)=O)C(=O)N[C@H](Cc1ccc(O)cc1)C(=O)N[C@H](Cc1c[nH]c2ccccc12)C(=O)N[C@H](CCCN)C(=O)N[C@@H](CCCN)C(=O)NCC(=O)N[C@H](CCCN)C(=O)N[C@@H](Cc1c[nH]c2ccccc12)C(=O)N[C@@H]1C(=O)N[C@@H]([C@@H](C)CC)C(=O)NCC(=O)N[C@@H](CO)C(=O)O[C@@H]1C (Lauroyl-[dN][dY][dW][dOrn][Orn]G[dOrn]WTIGS; ester 9-C) | 8 (≈ 12.7 µg/mL) | 8 (≈ 12.7 µg/mL) | 16 (≈ 25.4 µg/mL) | 4 | 2 (≈ 3.18 µg/mL) | 16 (≈ 25.4 µg/mL) | 4 (≈ 6.36 µg/mL) | 4 (≈ 6.36 µg/mL) | 4 (≈ 6.36 µg/mL)
CCC(C)CCC(=O)N[C@H](CC(N)=O)C(=O)N[C@H](Cc1ccc(O)cc1)C(=O)N[C@H](Cc1c[nH]c2ccccc12)C(=O)N[C@H](C)C(=O)N[C@@H](CCCN)C(=O)NCC(=O)N[C@H](CCCN)C(=O)N[C@@H](Cc1c[nH]c2ccccc12)C(=O)N[C@@H]1C(=O)N[C@@H]([C@@H](C)CC)C(=O)NCC(=O)N[C@@H](CO)C(=O)O[C@@H]1C (mixture of isomers) | 8 | 8 | 32 | 64 | 8 | 32 | 32 | 16 | 8
CCC(C)CCC(=O)N[C@H](CC(N)=O)C(=O)N[C@H](Cc1ccc(O)cc1)C(=O)N[C@H](Cc1c[nH]c2ccccc12)C(=O)N[C@H](CCCN)C(=O)N[C@@H](CCCN)C(=O)NCC(=O)N[C@H](C)C(=O)N[C@@H](Cc1c[nH]c2ccccc12)C(=O)N[C@@H]1C(=O)N[C@@H]([C@@H](C)CC)C(=O)NCC(=O)N[C@@H](CO)C(=O)O[C@@H]1C (mixture of isomers) | 8 | 16 | 64 | 32 | 16 | 32 | 32 | 16 | 8
CCC(C)CCC(=O)N[C@H](CC(N)=O)C(=O)N[C@H](Cc1ccc(O)cc1)C(=O)N[C@H](Cc1c[nH]c2ccccc12)C(=O)N[C@H](CCCN)C(=O)N[C@@H](CCCN)C(=O)N[C@@H](CCCN)C(=O)N[C@H](CCCN)C(=O)N[C@@H](Cc1c[nH]c2ccccc12)C(=O)N[C@@H]1C(=O)N[C@@H]([C@@H](C)CC)C(=O)NCC(=O)N[C@@H](CO)C(=O)O[C@@H]1C (mixture of isomers) | 2 | 2 | 128 | 128 | 1 | 32 | 16 | 8 | 8
CCCCCCCC(=O)N[C@H](CC(N)=O)C(=O)N[C@H](Cc1ccc(O)cc1)C(=O)N[C@H](Cc1c[nH]c2ccccc12)C(=O)N[C@H](CCCN)C(=O)N[C@@H](CCCN)C(=O)NCC(=O)N[C@H](CCCN)C(=O)N[C@@H](Cc1c[nH]c2ccccc12)C(=O)N[C@@H]1C(=O)N[C@@H]([C@@H](C)CC)C(=O)NCC(=O)N[C@@H](CO)C(=O)O[C@@H]1C (Octanoyl-[dN][dY][dW][dOrn][Orn]G[dOrn]WTIGS; ester 9-C) | 2 (≈ 3.07 µg/mL) | 4 (≈ 6.14 µg/mL) | 64 (≈ 98.2 µg/mL) | 64 | 2 (≈ 3.07 µg/mL) | 32 (≈ 49.1 µg/mL) | 16 (≈ 24.5 µg/mL) | 8 (≈ 12.3 µg/mL) | 4 (≈ 6.14 µg/mL)
CCC(C)CCC(=O)N[C@H](CC(N)=O)C(=O)N[C@H](Cc1ccc(-c2ccccc2)cc1)C(=O)N[C@H](Cc1c[nH]c2ccccc12)C(=O)N[C@H](CCCN)C(=O)N[C@@H](CCCN)C(=O)NCC(=O)N[C@H](CCCN)C(=O)N[C@@H](Cc1c[nH]c2ccccc12)C(=O)N[C@@H]1C(=O)N[C@@H]([C@@H](C)CC)C(=O)NCC(=O)N[C@@H](CO)C(=O)O[C@@H]1C (mixture of isomers) | 16 | 16 | 32 | 8 | 8 | 16 | 16 | 8 | 8
CCC(C)CCC(=O)N[C@H](CC(N)=O)C(=O)N[C@H](Cc1ccc(O)cc1)C(=O)N[C@H](Cc1c[nH]c2ccccc12)C(=O)N[C@H](CCCCN)C(=O)N[C@@H](CCCCN)C(=O)NCC(=O)N[C@H](CCCCN)C(=O)N[C@@H](Cc1c[nH]c2ccccc12)C(=O)N[C@@H]1C(=O)N[C@@H]([C@@H](C)CC)C(=O)NCC(=O)N[C@@H](CO)C(=O)O[C@@H]1C (stereo not given in full) | 4 (≈ 6.25 µg/mL) | 8 (≈ 12.5 µg/mL) | 64 (≈ 100 µg/mL) | 128 | 4 (≈ 6.25 µg/mL) | 64 (≈ 100 µg/mL) | 32 (≈ 50 µg/mL) | 32 (≈ 50 µg/mL) | 8 (≈ 12.5 µg/mL)
CCC(C)CCC(=O)N[C@H](CC(N)=O)C(=O)N[C@H](Cc1ccc2ccccc2c1)C(=O)N[C@H](Cc1c[nH]c2ccccc12)C(=O)N[C@H](CCCN)C(=O)N[C@@H](CCCN)C(=O)NCC(=O)N[C@H](CCCN)C(=O)N[C@@H](Cc1c[nH]c2ccccc12)C(=O)N[C@@H]1C(=O)N[C@@H]([C@@H](C)CC)C(=O)NCC(=O)N[C@@H](CO)C(=O)O[C@@H]1C (mixture of isomers) | 8 | 8 | 32 | 8 | 4 | 32 | 16 | 8 | 8
CCC(C)CCC(=O)N[C@H](CCCN)C(=O)N[C@H](Cc1ccc(O)cc1)C(=O)N[C@H](Cc1c[nH]c2ccccc12)C(=O)N[C@H](CCCN)C(=O)N[C@@H](CCCN)C(=O)NCC(=O)N[C@H](CCCN)C(=O)N[C@@H](Cc1c[nH]c2ccccc12)C(=O)N[C@@H]1C(=O)N[C@@H]([C@@H](C)CC)C(=O)NCC(=O)N[C@@H](CO)C(=O)O[C@@H]1C (mixture of isomers) | 4 | 2 | 64 | 128 | 1 | 32 | 16 | 4 | 8
CCC(C)CCC(=O)N[C@H](CC(N)=O)C(=O)N[C@H](Cc1ccc(C)cc1)C(=O)N[C@H](Cc1c[nH]c2ccccc12)C(=O)N[C@H](CCCN)C(=O)N[C@@H](CCCN)C(=O)NCC(=O)N[C@H](CCCN)C(=O)N[C@@H](Cc1c[nH]c2ccccc12)C(=O)N[C@@H]1C(=O)N[C@@H]([C@@H](C)CC)C(=O)NCC(=O)N[C@@H](CO)C(=O)O[C@@H]1C (mixture of isomers) | 8 | 8 | 64 | 32 | 4 | 32 | 16 | 8 | 8
CCCCCCCCCC(=O)N[C@H](CCCN)C(=O)N[C@H](Cc1ccc(O)cc1)C(=O)N[C@H](Cc1c[nH]c2ccccc12)C(=O)N[C@H](CCCN)C(=O)N[C@@H](CCCN)C(=O)NCC(=O)N[C@H](CCCN)C(=O)N[C@@H](Cc1c[nH]c2ccccc12)C(=O)N[C@@H]1C(=O)N[C@@H]([C@@H](C)CC)C(=O)NCC(=O)N[C@@H](CO)C(=O)O[C@@H]1C | 8 (≈ 12.5 µg/mL) | 16 (≈ 25 µg/mL) | 64 (≈ 100 µg/mL) | 128 | 8 (≈ 12.5 µg/mL) | 32 (≈ 50 µg/mL) | 16 (≈ 25 µg/mL) | 16 (≈ 25 µg/mL) | 16 (≈ 25 µg/mL)
CCC(C)CCC(=O)N[C@H](CC(N)=O)C(=O)N[C@H](Cc1ccc(O)cc1)C(=O)N[C@H](Cc1c[nH]c2ccccc12)C(=O)N[C@H](CCN)C(=O)N[C@@H](CCN)C(=O)NCC(=O)N[C@H](CCN)C(=O)N[C@@H](Cc1c[nH]c2ccccc12)C(=O)N[C@@H]1C(=O)N[C@@H]([C@@H](C)CC)C(=O)NCC(=O)N[C@@H](CO)C(=O)O[C@@H]1C (stereo not given in full) | 4 (≈ 5.91 µg/mL) | 8 (≈ 11.8 µg/mL) | 64 (≈ 94.6 µg/mL) | 128 | 4 (≈ 5.91 µg/mL) | 64 (≈ 94.6 µg/mL) | 8 (≈ 11.8 µg/mL) | 16 (≈ 23.6 µg/mL) | 32 (≈ 47.3 µg/mL)
